Measured values from US20230085307A1, “PYRIDAZINONE COMPOUND AND HERBICIDE” (NISSAN CHEMICAL CORPORATION, priority 2019, published 2023).

Tests used:
[1] = tested on: barnyard grass; assay: Test Example 3: herbicidal effect by foliage application, Wagner pot (Table 18, symbol H); assay type: in vivo, barnyard grass (Echinochloa crus-galli); conditions: amount of applied herbicide 320 g/ha
How it was run: (§1)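 Plants were sown in alluvial soil held under 0.1–0.5 cm standing water and grown 14 days in a greenhouse at 25–30 °C. An emulsifiable formulation, water-diluted to the set dose, was then sprayed onto the foliage, and effects were scored three weeks later using previously defined criteria.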

[2] = tested on: Chinese sprangletop; assay: Test Example 3: herbicidal effect by foliage application, Wagner pot (Table 18, symbol D); assay type: in vivo, chinese sprangletop (Leptochloa chinensis); conditions: amount of applied herbicide 320 g/ha
How it was run: as §1

[3] = tested on: rice flat sedge; assay: Test Example 3: herbicidal effect by foliage application, Wagner pot (Table 18, symbol E); assay type: in vivo, rice flat sedge (Cyperus iria); conditions: amount of applied herbicide 320 g/ha
How it was run: as §1

[4] = tested on: southern crabgrass; assay: Test Example 4: herbicidal effect by soil treatment (Table 19, symbol F); assay type: in vivo, southern crabgrass (Digitaria ciliaris); conditions: amount of applied herbicide 320 g/ha
How it was run: (§2)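 Emulsion of test compound, water-diluted to predetermined amount, sprayed on soil after sowing (seed depth ~1.5 cm, sterilized diluvial soil). Greenhouse, 25–30° C. Effect graded at three weeks post-spray.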

[5] = tested on: green foxtail; assay: Test Example 4: herbicidal effect by soil treatment (Table 19, symbol G); assay type: in vivo, green foxtail (Setaria viridis); conditions: amount of applied herbicide 320 g/ha
How it was run: as §2

[6] = tested on: barnyard grass; assay: Test Example 4: herbicidal effect by soil treatment (Table 19, symbol H); assay type: in vivo, barnyard grass (Echinochloa crus-galli); conditions: amount of applied herbicide 320 g/ha
How it was run: as §2

[7] = tested on: wild oat; assay: Test Example 4: herbicidal effect by soil treatment (Table 19, symbol I); assay type: in vivo, wild oat (Avena fatua); conditions: amount of applied herbicide 320 g/ha
How it was run: as §2

[8] = tested on: blackgrass; assay: Test Example 4: herbicidal effect by soil treatment (Table 19, symbol J); assay type: in vivo, blackgrass (Alopecurus myosuroides); conditions: amount of applied herbicide 320 g/ha
How it was run: as §2

[9] = tested on: Italian ryegrass; assay: Test Example 4: herbicidal effect by soil treatment (Table 19, symbol K); assay type: in vivo, Italian ryegrass (Lolium multiflorum); conditions: amount of applied herbicide 320 g/ha
How it was run: as §2

[10] = tested on: windgrass; assay: Test Example 4: herbicidal effect by soil treatment (Table 19, symbol L); assay type: in vivo, windgrass (Apera spica-venti); conditions: amount of applied herbicide 320 g/ha
How it was run: as §2

[11] = tested on: velvetleaf; assay: Test Example 4: herbicidal effect by soil treatment (Table 19, symbol M); assay type: in vivo, velvetleaf (Abutilon theophrasti); conditions: amount of applied herbicide 320 g/ha
How it was run: as §2

[12] = tested on: redroot pigweed; assay: Test Example 4: herbicidal effect by soil treatment (Table 19, symbol N); assay type: in vivo, redroot pigweed (Amaranthus retroflexus); conditions: amount of applied herbicide 320 g/ha
How it was run: as §2

[13] = tested on: lambsquarters; assay: Test Example 4: herbicidal effect by soil treatment (Table 19, symbol O); assay type: in vivo, lambsquarters (Chenopodium album); conditions: amount of applied herbicide 320 g/ha
How it was run: as §2

[14] = tested on: chickweed; assay: Test Example 4: herbicidal effect by soil treatment (Table 19, symbol P); assay type: in vivo, common chickweed (Stellaria media); conditions: amount of applied herbicide 320 g/ha
How it was run: as §2

[15] = tested on: false cleavers; assay: Test Example 4: herbicidal effect by soil treatment (Table 19, symbol Q); assay type: in vivo, false cleavers (Galium spurium); conditions: amount of applied herbicide 320 g/ha
How it was run: as §2

[16] = tested on: persian speedwell; assay: Test Example 4: herbicidal effect by soil treatment (Table 19, symbol R); assay type: in vivo, Persian speedwell (Veronica persica); conditions: amount of applied herbicide 320 g/ha
How it was run: as §2

[17] = tested on: southern crabgrass; assay: Test Example 5: herbicidal effect by foliage application, plastic box (Table 20, symbol F); assay type: in vivo, southern crabgrass (Digitaria ciliaris); conditions: foliage application, 320 g/ha, evaluated three weeks after application
How it was run: (§3)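 Post-emergence foliar test in sterilized diluvial soil. Compound applied as water-diluted emulsion at a predetermined rate to 14-day-old plants; evaluation at three weeks.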

[18] = tested on: green foxtail; assay: Test Example 5: herbicidal effect by foliage application, plastic box (Table 20, symbol G); assay type: in vivo, green foxtail (Setaria viridis); conditions: foliage application, 320 g/ha, evaluated three weeks after application
How it was run: as §3

[19] = tested on: barnyard grass; assay: Test Example 5: herbicidal effect by foliage application, plastic box (Table 20, symbol H); assay type: in vivo, barnyard grass (Echinochloa crus-galli); conditions: foliage application, 320 g/ha, evaluated three weeks after application
How it was run: as §3

[20] = tested on: wild oat; assay: Test Example 5: herbicidal effect by foliage application, plastic box (Table 20, symbol I); assay type: in vivo, wild oat (Avena fatua); conditions: foliage application, 320 g/ha, evaluated three weeks after application
How it was run: as §3

[21] = tested on: blackgrass; assay: Test Example 5: herbicidal effect by foliage application, plastic box (Table 20, symbol J); assay type: in vivo, blackgrass (Alopecurus myosuroides); conditions: foliage application, 320 g/ha, evaluated three weeks after application
How it was run: as §3

[22] = tested on: Italian ryegrass; assay: Test Example 5: herbicidal effect by foliage application, plastic box (Table 20, symbol K); assay type: in vivo, Italian ryegrass (Lolium multiflorum); conditions: foliage application, 320 g/ha, evaluated three weeks after application
How it was run: as §3

[23] = tested on: windgrass; assay: Test Example 5: herbicidal effect by foliage application, plastic box (Table 20, symbol L); assay type: in vivo, windgrass (Apera spica-venti); conditions: foliage application, 320 g/ha, evaluated three weeks after application
How it was run: as §3

[24] = tested on: velvetleaf; assay: Test Example 5: herbicidal effect by foliage application, plastic box (Table 20, symbol M); assay type: in vivo, velvetleaf (Abutilon theophrasti); conditions: foliage application, 320 g/ha, evaluated three weeks after application
How it was run: as §3

[25] = tested on: redroot pigweed; assay: Test Example 5: herbicidal effect by foliage application, plastic box (Table 20, symbol N); assay type: in vivo, redroot pigweed (Amaranthus retroflexus); conditions: foliage application, 320 g/ha, evaluated three weeks after application
How it was run: as §3

[26] = tested on: lambsquarters; assay: Test Example 5: herbicidal effect by foliage application, plastic box (Table 20, symbol O); assay type: in vivo, lambsquarters (Chenopodium album); conditions: foliage application, 320 g/ha, evaluated three weeks after application
How it was run: as §3

[27] = tested on: chickweed; assay: Test Example 5: herbicidal effect by foliage application, plastic box (Table 20, symbol P); assay type: in vivo, common chickweed (Stellaria media); conditions: foliage application, 320 g/ha, evaluated three weeks after application
How it was run: as §3

[28] = tested on: false cleavers; assay: Test Example 5: herbicidal effect by foliage application, plastic box (Table 20, symbol Q); assay type: in vivo, false cleavers (Galium spurium); conditions: foliage application, 320 g/ha, evaluated three weeks after application
How it was run: as §3

[29] = tested on: persian speedwell; assay: Test Example 5: herbicidal effect by foliage application, plastic box (Table 20, symbol R); assay type: in vivo, Persian speedwell (Veronica persica); conditions: foliage application, 320 g/ha, evaluated three weeks after application
How it was run: as §3

Structure (SMILES): CCCCOc1ccc(-c2sc3ccc(Cl)cc3c2-c2c(OC(=O)CCC)c(C)nn(C)c2=O)cc1 [2-110]
- herbicidal effect on H: barnyard grass [1]: 4 (Herbicidal rate of 70% or more and less than 90%)
- herbicidal effect on D: Chinese sprangletop [2]: 4 (Herbicidal rate of 70% or more and less than 90%)
- herbicidal effect on E: rice flat sedge [3]: 4 (Herbicidal rate of 70% or more and less than 90%)
- F: southern crabgrass, herbicidal effect rating [4]: 0 (Herbicidal rate of 5% or less (almost no effect))
- G: green foxtail, herbicidal effect rating [5]: 0 (Herbicidal rate of 5% or less (almost no effect))
- H: barnyard grass, herbicidal effect rating [6]: 0 (Herbicidal rate of 5% or less (almost no effect))
- I: wild oat, herbicidal effect rating [7]: 0 (Herbicidal rate of 5% or less (almost no effect))
- J: blackgrass, herbicidal effect rating [8]: 0 (Herbicidal rate of 5% or less (almost no effect))
- K: Italian ryegrass, herbicidal effect rating [9]: 0 (Herbicidal rate of 5% or less (almost no effect))
- L: windgrass, herbicidal effect rating [10]: 0 (Herbicidal rate of 5% or less (almost no effect))
- M: velvetleaf, herbicidal effect rating [11]: 0 (Herbicidal rate of 5% or less (almost no effect))
- N: redroot pigweed, herbicidal effect rating [12]: 0 (Herbicidal rate of 5% or less (almost no effect))
- O: lambsquarters, herbicidal effect rating [13]: 0 (Herbicidal rate of 5% or less (almost no effect))
- P: chickweed, herbicidal effect rating [14]: 0 (Herbicidal rate of 5% or less (almost no effect))
- Q: false cleavers, herbicidal effect rating [15]: 0 (Herbicidal rate of 5% or less (almost no effect))
- R: persian speedwell, herbicidal effect rating [16]: 2 (Herbicidal rate of 20% or more and less than 40%)
- herbicidal effect on F: southern crabgrass [17]: 0 (Herbicidal rate of 5% or less (almost no effect))
- herbicidal effect on G: green foxtail [18]: 0 (Herbicidal rate of 5% or less (almost no effect))
- herbicidal effect on H: barnyard grass [19]: 0 (Herbicidal rate of 5% or less (almost no effect))
- herbicidal effect on I: wild oat [20]: 0 (Herbicidal rate of 5% or less (almost no effect))
- herbicidal effect on J: blackgrass [21]: 0 (Herbicidal rate of 5% or less (almost no effect))
- herbicidal effect on K: Italian ryegrass [22]: 0 (Herbicidal rate of 5% or less (almost no effect))
- herbicidal effect on L: windgrass [23]: 0 (Herbicidal rate of 5% or less (almost no effect))
- herbicidal effect on M: velvetleaf [24]: 3 (Herbicidal rate of 40% or more and less than 70%)
- herbicidal effect on N: redroot pigweed [25]: 4 (Herbicidal rate of 70% or more and less than 90%)
- herbicidal effect on O: lambsquarters [26]: 3 (Herbicidal rate of 40% or more and less than 70%)
- herbicidal effect on P: chickweed [27]: 2 (Herbicidal rate of 20% or more and less than 40%)
- herbicidal effect on Q: false cleavers [28]: 3 (Herbicidal rate of 40% or more and less than 70%)
- herbicidal effect on R: persian speedwell [29]: 5 (Herbicidal rate of 90% or more (almost completely withered))

Structure (SMILES): CCOc1cc(F)ccc1-c1sc2ccc(Cl)cc2c1-c1c(O)c(C)nn(C)c1=O [2-115]
- herbicidal effect on H: barnyard grass [1]: 5 (Herbicidal rate of 90% or more (almost completely withered))
- herbicidal effect on D: Chinese sprangletop [2]: 1 (Herbicidal rate of 5% or more and less than 20%)
- herbicidal effect on E: rice flat sedge [3]: 3 (Herbicidal rate of 40% or more and less than 70%)
- F: southern crabgrass, herbicidal effect rating [4]: 3 (Herbicidal rate of 40% or more and less than 70%)
- G: green foxtail, herbicidal effect rating [5]: 2 (Herbicidal rate of 20% or more and less than 40%)
- H: barnyard grass, herbicidal effect rating [6]: 3 (Herbicidal rate of 40% or more and less than 70%)
- I: wild oat, herbicidal effect rating [7]: 0 (Herbicidal rate of 5% or less (almost no effect))
- J: blackgrass, herbicidal effect rating [8]: 4 (Herbicidal rate of 70% or more and less than 90%)
- K: Italian ryegrass, herbicidal effect rating [9]: 0 (Herbicidal rate of 5% or less (almost no effect))
- L: windgrass, herbicidal effect rating [10]: 0 (Herbicidal rate of 5% or less (almost no effect))
- M: velvetleaf, herbicidal effect rating [11]: 1 (Herbicidal rate of 5% or more and less than 20%)
- N: redroot pigweed, herbicidal effect rating [12]: 5 (Herbicidal rate of 90% or more (almost completely withered))
- O: lambsquarters, herbicidal effect rating [13]: 3 (Herbicidal rate of 40% or more and less than 70%)
- P: chickweed, herbicidal effect rating [14]: 3 (Herbicidal rate of 40% or more and less than 70%)
- Q: false cleavers, herbicidal effect rating [15]: 4 (Herbicidal rate of 70% or more and less than 90%)
- R: persian speedwell, herbicidal effect rating [16]: 4 (Herbicidal rate of 70% or more and less than 90%)
- herbicidal effect on F: southern crabgrass [17]: 4 (Herbicidal rate of 70% or more and less than 90%)
- herbicidal effect on G: green foxtail [18]: 3 (Herbicidal rate of 40% or more and less than 70%)
- herbicidal effect on H: barnyard grass [19]: 5 (Herbicidal rate of 90% or more (almost completely withered))
- herbicidal effect on I: wild oat [20]: 1 (Herbicidal rate of 5% or more and less than 20%)
- herbicidal effect on J: blackgrass [21]: 3 (Herbicidal rate of 40% or more and less than 70%)
- herbicidal effect on K: Italian ryegrass [22]: 0 (Herbicidal rate of 5% or less (almost no effect))
- herbicidal effect on L: windgrass [23]: 3 (Herbicidal rate of 40% or more and less than 70%)
- herbicidal effect on M: velvetleaf [24]: 5 (Herbicidal rate of 90% or more (almost completely withered))
- herbicidal effect on N: redroot pigweed [25]: 5 (Herbicidal rate of 90% or more (almost completely withered))
- herbicidal effect on O: lambsquarters [26]: 3 (Herbicidal rate of 40% or more and less than 70%)
- herbicidal effect on P: chickweed [27]: 5 (Herbicidal rate of 90% or more (almost completely withered))
- herbicidal effect on Q: false cleavers [28]: 5 (Herbicidal rate of 90% or more (almost completely withered))
- herbicidal effect on R: persian speedwell [29]: 5 (Herbicidal rate of 90% or more (almost completely withered))
